Assay results reported in ChEMBL document CHEMBL1152576, “E-Combretastatin and E-resveratrol structural modifications: antimicrobial and cancer cell growth inhibitory beta-E-nitrostyrenes” (Bioorg Med Chem, 2009).
In brackets after ≈: the same amount, converted by molar mass. Activity calls are given as the source filed them. No cut-off for these calls is given here.

Legend:
Staphylococcus aureus [1] = test: Antimicrobial activity against Staphylococcus aureus ATCC 29213 by broth microdilution susceptibility assay; type: functional
[2] = tested on: Stenotrophomonas maltophilia; test: Antimicrobial activity against Stenotrophomonas maltophilia ATCC 13637 after 24 hrs by broth microdilution susceptibility assay; type: functional; details: ATCC 13637, 24 h
Neisseria gonorrhoeae [3] = test: Antimicrobial activity against Neisseria gonorrhoeae ATCC 49226 after 24 hrs by broth microdilution susceptibility assay; type: functional; details: ATCC 49226, 24 h
Enterococcus faecalis [4] = test: Antimicrobial activity against Enterococcus faecalis ATCC 29212 after 24 hrs by broth microdilution susceptibility assay; type: functional; details: ATCC 29212, 24 h
OVCAR-3 = test: Cytotoxicity against human OVCAR-3 cells after 48 hrs by sulforhodamine B assay; type: functional
Candida albicans [5] = test: Antifungal activity against Candida albicans ATCC 90028 after 24 hrs by broth microdilution susceptibility assay; type: functional; details: ATCC 90028, 24 h
Escherichia coli [6] = test: Antimicrobial activity against Escherichia coli ATCC 25922 assessed clear zone in inhibition per disk by CLSI disk diffusion susceptibility assay; type: functional
Candida albicans [7] = test: Antifungal activity against Candida albicans ATCC 90028 after 48 hrs by broth microdilution susceptibility assay; type: functional; details: ATCC 90028, 48 h
Neisseria gonorrhoeae [8] = test: Antimicrobial activity against Neisseria gonorrhoeae ATCC 49226 assessed clear zone of inhibition measured per disk by CLSI disk diffusion susceptibility assay; type: functional
Cryptococcus neoformans [9] = test: Antimicrobial activity against Cryptococcus neoformans ATCC 90112 assessed clear zone in inhibition per disk by CLSI disk diffusion susceptibility assay; type: functional
NCI-H460 = test: Cytotoxicity against human NCI-H460 cells after 48 hrs by sulforhodamine B assay; type: functional
Micrococcus luteus [10] = test: Antimicrobial activity against Micrococcus luteus Presque Isle 456 after 24 hrs by broth microdilution susceptibility assay; type: functional; details: Presque Isle 456, 24 h
Neisseria gonorrhoeae [11] = test: Antimicrobial activity against Neisseria gonorrhoeae ATCC 49226 by broth microdilution susceptibility assay; type: functional
Enterococcus faecalis [12] = test: Antimicrobial activity against Enterococcus faecalis ATCC 29212 assessed clear zone in inhibition per disk by CLSI disk diffusion susceptibility assay; type: functional
P388 = test: Cytotoxicity against mouse P388 cells after 48 hrs by sulforhodamine B assay; type: functional; details: for EC50: P388, 48 h, read-out: ED50 (the source's name)
SF-268 = test: Cytotoxicity against human SF268 cells after 48 hrs by sulforhodamine B assay; type: functional
[13] = tested on: Stenotrophomonas maltophilia; test: Antimicrobial activity against Stenotrophomonas maltophilia ATCC 13637 by broth microdilution susceptibility assay; type: functional
A498 = test: Cytotoxicity against human A498 cells after 48 hrs by sulforhodamine B assay; type: functional
Cryptococcus neoformans [14] = test: Antifungal activity against Cryptococcus neoformans ATCC 90112 after 48 hrs by broth microdilution susceptibility assay; type: functional; details: ATCC 90112, 48 h
Cryptococcus neoformans [15] = test: Antifungal activity against Cryptococcus neoformans ATCC 90112 after 72 hrs by broth microdilution susceptibility assay; type: functional; details: ATCC 90112, 72 h
Streptococcus pneumoniae [16] = test: Antimicrobial activity against Streptococcus pneumoniae ATCC 6303 by broth microdilution susceptibility assay; type: functional
DU-145 = test: Cytotoxicity against human DU145 cells after 48 hrs by sulforhodamine B assay; type: functional
KM-20L2 = test: Cytotoxicity against human KM20L2 cells after 48 hrs by sulforhodamine B assay; type: functional
Candida albicans [17] = test: Antimicrobial activity against Candida albicans ATCC 90028 assessed clear zone in inhibition per disk by CLSI disk diffusion susceptibility assay; type: functional
Staphylococcus aureus [18] = test: Antimicrobial activity against Staphylococcus aureus ATCC 29213 assessed clear zone in inhibition per disk by CLSI disk diffusion susceptibility assay; type: functional
Escherichia coli [19] = test: Antimicrobial activity against Escherichia coli ATCC 25922 by broth microdilution susceptibility assay; type: functional
SK-MEL-5 = test: Cytotoxicity against human SK-MEL-5 cells after 48 hrs by sulforhodamine B assay; type: functional
Streptococcus pneumoniae [20] = test: Antimicrobial activity against Streptococcus pneumoniae ATCC 6303 assessed clear zone in inhibition per disk by CLSI disk diffusion susceptibility assay; type: functional
BXPC-3 = test: Cytotoxicity against human BxPC3 cells after 48 hrs by sulforhodamine B assay; type: functional
Streptococcus pneumoniae [21] = test: Antimicrobial activity against Streptococcus pneumoniae ATCC 6303 after 24 hrs by broth microdilution susceptibility assay; type: functional; details: ATCC 6303, 24 h
Escherichia coli [22] = test: Antimicrobial activity against Escherichia coli ATCC 25922 after 24 hrs by broth microdilution susceptibility assay; type: functional; details: ATCC 25922, 24 h
Enterobacter cloacae [23] = test: Antimicrobial activity against Enterobacter cloacae ATCC 13047 assessed clear zone in inhibition per disk by CLSI disk diffusion susceptibility assay; type: functional
[24] = Inhibition of tubulin polymerization
Staphylococcus aureus [25] = test: Antimicrobial activity against Staphylococcus aureus ATCC 29213 after 24 hrs by broth microdilution susceptibility assay; type: functional; details: ATCC 29213, 24 h
Micrococcus luteus [26] = test: Antimicrobial activity against Micrococcus luteus Presque Isle 456 assessed clear zone in inhibition per disk by CLSI disk diffusion susceptibility assay; type: functional
Enterococcus faecalis [27] = test: Antimicrobial activity against Enterococcus faecalis ATCC 29212 by broth microdilution susceptibility assay; type: functional
SF-295 = test: Cytotoxicity against human SF295 cells after 48 hrs by sulforhodamine B assay; type: functional
MCF7 = test: Cytotoxicity against human MCF7 cells after 48 hrs by sulforhodamine B assay; type: functional
Enterobacter cloacae [28] = test: Antimicrobial activity against Enterobacter cloacae ATCC 13047 by broth microdilution susceptibility assay; type: functional
[29] = tested on: Stenotrophomonas maltophilia; test: Antimicrobial activity against Stenotrophomonas maltophilia ATCC 13637 assessed clear zone in inhibition per disk by CLSI disk diffusion susceptibility assay; type: functional
Micrococcus luteus [30] = test: Antimicrobial activity against Micrococcus luteus Presque Isle 456 by broth microdilution susceptibility assay; type: functional

## O=[N+]([O-])/C=C/c1ccc2c(c1)OCO2
Staphylococcus aureus [1]
  MIC: 32 µg/mL (≈ 166 µM)
[2]
  MBC: > 64 µg/mL
Neisseria gonorrhoeae [3]
  MBC: 2 µg/mL (≈ 10.4 µM)
Enterococcus faecalis [4]
  MBC: > 64 µg/mL
OVCAR-3
  GI50: inactive
Candida albicans [5]
  MFC: 16 µg/mL (≈ 82.8 µM)
Escherichia coli [6]
  MIC: 6.25 µg
Candida albicans [7]
  MIC: 8 µg/mL (≈ 41.4 µM)
Neisseria gonorrhoeae [8]
  MIC: <0.78 µg
Cryptococcus neoformans [9]
  MIC: 0.78 µg
NCI-H460; NCI-H460, 48 h
  GI50: 2 µg/mL (≈ 10.4 µM)
Micrococcus luteus [10]
  MBC: > 64 µg/mL
Neisseria gonorrhoeae [11]
  MIC: 1 µg/mL (≈ 5.18 µM)
Enterococcus faecalis [12]
  MIC: 6.25 µg
P388
  EC50: 2 µg/mL (≈ 10.4 µM)
SF-268; SF-268, 48 h
  GI50: 1.9 µg/mL (≈ 9.84 µM)
[13]
  MIC: 64 µg/mL (≈ 331 µM)
A498
  GI50: inactive
Cryptococcus neoformans [14]
  MFC: 16 µg/mL (≈ 82.8 µM)
Cryptococcus neoformans [15]
  MIC: 8 µg/mL (≈ 41.4 µM)
Streptococcus pneumoniae [16]
  MIC: 16 µg/mL (≈ 82.8 µM)
DU-145; DU-145, 48 h
  GI50: 1.8 µg/mL (≈ 9.32 µM)
KM-20L2; KM-20L2, 48 h
  GI50: 1.8 µg/mL (≈ 9.32 µM)
Candida albicans [17]
  MIC: 1.56 µg
Staphylococcus aureus [18]
  MIC: 6.25 µg
Escherichia coli [19]
  MIC: 64 µg/mL (≈ 331 µM)
SK-MEL-5
  GI50: inactive
Streptococcus pneumoniae [20]
  MIC: 0.78 µg
BXPC-3; BXPC-3, 48 h
  GI50: 1.7 µg/mL (≈ 8.8 µM)
Streptococcus pneumoniae [21]
  MBC: 32 µg/mL (≈ 166 µM)
Escherichia coli [22]
  MBC: > 64 µg/mL
Enterobacter cloacae [23]
  MIC: 12.5 µg
[24]
  IC50: 5.3 µM
Staphylococcus aureus [25]
  MBC: > 64 µg/mL
Micrococcus luteus [26]
  MIC: 50 µg
Enterococcus faecalis [27]
  MIC: 64 µg/mL (≈ 331 µM)
SF-295
  GI50: inactive
MCF7; MCF7, 48 h
  GI50: 0.58 µg/mL (≈ 3 µM)
Enterobacter cloacae [28]
  MIC: > 64 µg/mL
[29]
  MIC: 6.25 µg
Micrococcus luteus [30]
  MIC: 64 µg/mL (≈ 331 µM)

## COc1ccc(/C=C/[N+](=O)[O-])cc1O
Staphylococcus aureus [1]
  MIC: > 64 µg/mL
Neisseria gonorrhoeae [3]
  MBC: 4 µg/mL (≈ 20.5 µM)
OVCAR-3
  GI50: inactive
Candida albicans [5]
  MFC: 32 µg/mL (≈ 164 µM)
Escherichia coli [6]
  MIC: 25 µg
Candida albicans [7]
  MIC: 16 µg/mL (≈ 82 µM)
Neisseria gonorrhoeae [8]
  MIC: <0.78 µg
Cryptococcus neoformans [9]
  MIC: 0.78 µg
NCI-H460
  GI50: inactive
Neisseria gonorrhoeae [11]
  MIC: 4 µg/mL (≈ 20.5 µM)
Enterococcus faecalis [12]
  MIC: >100 µg
P388
  ED50: inactive
SF-268
  GI50: inactive
[13]
  MIC: > 64 µg/mL
A498
  GI50: inactive
Cryptococcus neoformans [14]
  MFC: 32 µg/mL (≈ 164 µM)
Cryptococcus neoformans [15]
  MIC: 32 µg/mL (≈ 164 µM)
Streptococcus pneumoniae [16]
  MIC: 64 µg/mL (≈ 328 µM)
DU-145
  GI50: inactive
KM-20L2
  GI50: inactive
Candida albicans [17]
  MIC: 3.12 µg
Staphylococcus aureus [18]
  MIC: 50 µg
Escherichia coli [19]
  MIC: > 64 µg/mL
SK-MEL-5
  GI50: inactive
Streptococcus pneumoniae [20]
  MIC: 1.56 µg
BXPC-3
  GI50: inactive
Streptococcus pneumoniae [21]
  MBC: > 64 µg/mL
Enterobacter cloacae [23]
  MIC: 25 µg
[24]
  IC50: 8.2 µM
Micrococcus luteus [26]
  MIC: >100 µg
Enterococcus faecalis [27]
  MIC: > 64 µg/mL
SF-295
  GI50: inactive
MCF7
  GI50: inactive
Enterobacter cloacae [28]
  MIC: > 64 µg/mL
[29]
  MIC: 25 µg
Micrococcus luteus [30]
  MIC: > 64 µg/mL

## O=[N+]([O-])/C=C/c1ccccc1O
Staphylococcus aureus [1]
  MIC: > 64 µg/mL
Neisseria gonorrhoeae [3]
  MBC: 2 µg/mL (≈ 12.1 µM)
OVCAR-3
  GI50: inactive
Candida albicans [5]
  MFC: 32 µg/mL (≈ 194 µM)
Escherichia coli [6]
  MIC: 25 µg
Candida albicans [7]
  MIC: 16 µg/mL (≈ 96.9 µM)
Neisseria gonorrhoeae [8]
  MIC: <0.78 µg
Cryptococcus neoformans [9]
  MIC: 0.78 µg
NCI-H460; NCI-H460, 48 h
  GI50: 0.95 µg/mL (≈ 5.75 µM)
Neisseria gonorrhoeae [11]
  MIC: 2 µg/mL (≈ 12.1 µM)
Enterococcus faecalis [12]
  MIC: 50 µg
P388
  EC50: 3.5 µg/mL (≈ 21.2 µM)
SF-268; SF-268, 48 h
  GI50: 1.2 µg/mL (≈ 7.27 µM)
[13]
  MIC: 32 µg/mL (≈ 194 µM)
A498
  GI50: inactive
Cryptococcus neoformans [14]
  MFC: 32 µg/mL (≈ 194 µM)
Cryptococcus neoformans [15]
  MIC: 8 µg/mL (≈ 48.4 µM)
Streptococcus pneumoniae [16]
  MIC: 32 µg/mL (≈ 194 µM)
DU-145; DU-145, 48 h
  GI50: 1 µg/mL (≈ 6.06 µM)
KM-20L2; KM-20L2, 48 h
  GI50: 1.6 µg/mL (≈ 9.69 µM)
Candida albicans [17]
  MIC: 1.56 µg
Staphylococcus aureus [18]
  MIC: 25 µg
Escherichia coli [19]
  MIC: 64 µg/mL (≈ 388 µM)
SK-MEL-5
  GI50: inactive
Streptococcus pneumoniae [20]
  MIC: 1.56 µg
BXPC-3; BXPC-3, 48 h
  GI50: 1.1 µg/mL (≈ 6.66 µM)
Streptococcus pneumoniae [21]
  MBC: > 64 µg/mL
Enterobacter cloacae [23]
  MIC: 25 µg
[24]
  IC50: 4.4 µM
Micrococcus luteus [26]
  MIC: 25 µg
Enterococcus faecalis [27]
  MIC: > 64 µg/mL
SF-295
  GI50: inactive
MCF7; MCF7, 48 h
  GI50: 0.47 µg/mL (≈ 2.85 µM)
Enterobacter cloacae [28]
  MIC: > 64 µg/mL
[29]
  MIC: 12.5 µg
Micrococcus luteus [30]
  MIC: > 64 µg/mL
